Measured values as given in patent publication US20250313572A1, “MACROCYCLIC MCL-1 INHIBITORS AND METHODS OF USE” (AbbVie Inc., priority 2017, published 2025).
Read-outs that look alike come from different tables or passages of the source.

Key:
GST-MCL-1 = GST-MCL-1 (Homo sapiens, UniProt Q07820); experiment: TR-FRET MCL-1 binding assay (competition with probe F-Bak)
How it was run: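 Test compounds, 11 three-fold dilutions from 25 μM final, incubated 2 hours at room temperature with GST-MCL-1, F-Bak probe and Tb-anti-GST antibody. TR-FRET read at 340/35 nm excitation with 520/525 and 495/510 nm emission. Run without human serum and with 10% HS.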

[1] = test system: AMO-1 human multiple myeloma tumor cell line; experiment: AMO-1 cell viability assay (CellTiter-Glo, 24 hours); format: cell-based; settings: Homo sapiens, AMO1, 24 h, read-out: AMO-1 Viability IC50 (μM, 10% FBS), 10% FBS, 24 hours of compound treatment
[2] = test system: NCI-H929 human multiple myeloma tumor cell line; experiment: NCI-H929 cell viability assay (CellTiter-Glo, 24 hours); format: cell-based; settings: Homo sapiens, NCI-H929, 24 h, read-out: H929 Viability IC50 (μM, 10% FBS), 10% FBS, 24 hours of compound treatment
Method: Each concentration was tested in duplicate at least 3 independent times. A luminescent signal proportional to the number of viable cells following 24 hours of compound treatment was determined using the CellTiter-Glo® Luminescent Cell Viability Assay according to the manufacturer's recommendations (Promega Corp., Madison, WI). The plates were read in a Perkin Elmer Envision using a Luminescence protocol. To generate dose response curves the data is normalized to percent viability by setting the averages of the staurosporine (10 μM) and DMSO only control wells to 0% and 100% viability respectively.

[3] = MCL-1 Binding Ki (nM, 10% HS), in the presence of 10% HS (human serum)
[4] = without HS, read-out: MCL-1 Binding Ki

Sequence of GST-MCL-1 (Q07820 whole entry): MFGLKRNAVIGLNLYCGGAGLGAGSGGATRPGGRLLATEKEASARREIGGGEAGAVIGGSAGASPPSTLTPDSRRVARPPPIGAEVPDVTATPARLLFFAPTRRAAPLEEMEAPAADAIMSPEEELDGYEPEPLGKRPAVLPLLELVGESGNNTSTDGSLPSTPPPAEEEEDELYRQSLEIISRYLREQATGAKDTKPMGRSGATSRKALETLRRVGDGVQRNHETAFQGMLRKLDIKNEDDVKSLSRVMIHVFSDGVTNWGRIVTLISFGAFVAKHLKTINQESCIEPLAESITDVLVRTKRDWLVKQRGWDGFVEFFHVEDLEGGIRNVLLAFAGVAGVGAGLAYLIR

Row | Structure (SMILES) | Ki (GST-MCL-1; [3]) | Ki (GST-MCL-1; [4]) | IC50 [1] | IC50 [2]
1 | Cc1c(Cl)c2c(Cl)c(C)c1-c1c(-c3ccc(F)cc3)sc3ncnc(c13)O[C@@H](C(=O)O)Cc1cc(ccc1OCc1ccnc(-c3ccc(OC[C@H]4CN(C)CCO4)cc3)n1)OC[C@@H](CN1CCN(C)CC1)O2 [Example 158, (7R,16R)-19,23-dichloro-1-(4-fluorophenyl)-20,22-dimethyl-10-{[2-(4-{[(2R)-4-methylmorpholin-2-yl]methoxy}phenyl)pyrimidin-4-yl]methoxy}-16-[(4-methylpiperazin-1-yl)methyl]-7,8,15,16-tetrahydro-18,21-etheno-9,13-(metheno)-6,14,17-trioxa-2-thia-3,5-diazacyclononadeca[1,2,3-cd]indene-7-carboxylic Acid] | 0.41 nM | 0.003 nM | 0.000258 µM | 0.00131 µM
2 | CO[C@@H]1CO[C@H]2[C@@H]1OC[C@H]2OCCOCCOc1ccc(-c2nccc(COc3ccc4cc3C[C@H](C(=O)O)Oc3ncnc5sc(-c6ccc(F)cc6)c(c35)-c3c(C)c(Cl)c(c(Cl)c3C)O[C@H](CN3CCN(C)CC3)CO4)n2)cc1 [Example 159, (7R,16R)-19,23-dichloro-1-(4-fluorophenyl)-10-[(2-{4-[2-(2-{[(3R,3aR,6R,6aR)-6-methoxyhexahydrofuro[3,2-b]furan-3-yl]oxy}ethoxy)ethoxy]phenyl}pyrimidin-4-yl)methoxy]-20,22-dimethyl-16-[(4-methylpiperazin-1-yl)methyl]-7,8,15,16-tetrahydro-18,21-etheno-13,9-(metheno)-6,14,17-trioxa-2-thia-3,5-diazacyclononadeca[1,2,3-cd]indene-7-carboxylic Acid] | 0.087 nM | 0.008 nM | 0.000296 µM | 0.000379 µM
3 | COCCOCCOC[C@H]1CC[C@H](c2nccc(COc3ccc4cc3C[C@H](C(=O)O)Oc3ncnc5sc(-c6ccc(F)cc6)c(c35)-c3c(C)c(Cl)c(c(Cl)c3C)O[C@H](CN3CCN(C)CC3)CO4)n2)CC1 [Example 160, (7R,16R)-19,23-dichloro-1-(4-fluorophenyl)-10-({2-[(1r,4r)-4-{[2-(2-methoxyethoxy)ethoxy]methyl}cyclohexyl]pyrimidin-4-yl}methoxy)-20,22-dimethyl-16-[(4-methylpiperazin-1-yl)methyl]-7,8,15,16-tetrahydro-18,21-etheno-13,9-(metheno)-6,14,17-trioxa-2-thia-3,5-diazacyclononadeca[1,2,3-cd]indene-7-carboxylic Acid] | 0.083 nM | 0.005 nM | 0.000116 µM | 0.000206 µM
4 | Cc1c(Cl)c2c(Cl)c(C)c1-c1c(-c3ccc(F)cc3)sc3ncnc(c13)O[C@@H](C(=O)O)Cc1cc(ccc1OCc1ccnc(-c3ccc(O[C@H]4CO[C@H]5[C@@H]4OC[C@H]5O)cc3)n1)OC[C@@H](CN1CCN(C)CC1)O2 [Example 161, (7R,16R)-19,23-dichloro-1-(4-fluorophenyl)-10-{[2-(4-{[(3S,3aR,6R,6aR)-6-hydroxyhexahydrofuro[3,2-b]furan-3-yl]oxy}phenyl)pyrimidin-4-yl]methoxy}-20,22-dimethyl-16-[(4-methylpiperazin-1-yl)methyl]-7,8,15,16-tetrahydro-18,21-etheno-13,9-(metheno)-6,14,17-trioxa-2-thia-3,5-diazacyclononadeca[1,2,3-cd]indene-7-carboxylic Acid] | 0.141 nM | 0.002 nM | 0.000262 µM | 0.000502 µM
5 | COCCOCCOCCOc1ccc(COc2ccc3cc2C[C@H](C(=O)O)Oc2ncnc4sc(-c5ccc(F)cc5)c(c24)-c2c(C)c(Cl)c(c(Cl)c2C)O[C@H](CN2CCN(C)CC2)CO3)nc1 [Example 162, (7R,16R)-19,23-dichloro-1-(4-fluorophenyl)-10-[(5-{2-[2-(2-methoxyethoxy)ethoxy]ethoxy}pyridin-2-yl)methoxy]-20,22-dimethyl-16-[(4-methylpiperazin-1-yl)methyl]-7,8,15,16-tetrahydro-18,21-etheno-13,9-(metheno)-6,14,17-trioxa-2-thia-3,5-diazacyclononadeca[1,2,3-cd]indene-7-carboxylic Acid] | 0.934 nM | 0.159 nM | 0.012 µM | 0.0143 µM
6 | Cc1c(Cl)c2c(Cl)c(C)c1-c1c(-c3ccc(F)cc3)sc3ncnc(c13)O[C@@H](C(=O)O)Cc1cc(ccc1OCc1ccnc(-c3ccc(OC[C@H]4COCCN4C)cc3)n1)OC[C@@H](CN1CCN(C)CC1)O2 [Example 163, (7R,16R)-19,23-dichloro-1-(4-fluorophenyl)-20,22-dimethyl-10-{[2-(4-{[(3R)-4-methylmorpholin-3-yl]methoxy}phenyl)pyrimidin-4-yl]methoxy}-16-[(4-methylpiperazin-1-yl)methyl]-7,8,15,16-tetrahydro-18,21-etheno-9,13-(metheno)-6,14,17-trioxa-2-thia-3,5-diazacyclononadeca[1,2,3-cd]indene-7-carboxylic Acid] | 0.285 nM | 0.013 nM | 0.000399 µM | 0.00134 µM
7 | Cc1c(Cl)c2c(Cl)c(C)c1-c1c(-c3ccc(F)cc3)sc3ncnc(c13)O[C@@H](C(=O)O)Cc1cc(ccc1OCc1ccnc(-c3ccc(OCCN4C[C@H]5COC[C@H]5C4)cc3)n1)OC[C@@H](CN1CCN(C)CC1)O2 [Example 164, (7R,16R)-19,23-dichloro-1-(4-fluorophenyl)-20,22-dimethyl-16-[(4-methylpiperazin-1-yl)methyl]-10-{[2-(4-{2-[(3aR,6aS)-tetrahydro-1H-furo[3,4-c]pyrrol-5 (3H)-yl]ethoxy}phenyl)pyrimidin-4-yl]methoxy}-7,8,15,16-tetrahydro-18,21-etheno-13,9-(metheno)-6,14,17-trioxa-2-thia-3,5-diazacyclononadeca[1,2,3-cd]indene-7-carboxylic Acid] | 0.453 nM | 0.061 nM | 0.000416 µM | 0.00147 µM
8 | Cc1c(Cl)c2c(Cl)c(C)c1-c1c(-c3ccc(F)cc3)sc3ncnc(c13)O[C@@H](C(=O)O)Cc1cc(ccc1OCc1ccnc(-c3ccc(OCCN4CC5(COC5)C4)cc3)n1)OC[C@@H](CN1CCN(C)CC1)O2 [Example 165, (7R,16R)-19,23-dichloro-1-(4-fluorophenyl)-20,22-dimethyl-16-[(4-methylpiperazin-1-yl)methyl]-10-[(2-{4-[2-(2-oxa-6-azaspiro[3.3]heptan-6-yl)ethoxy]phenyl}pyrimidin-4-yl)methoxy]-7,8,15,16-tetrahydro-18,21-etheno-13,9-(metheno)-6,14,17-trioxa-2-thia-3,5-diazacyclononadeca[1,2,3-cd]indene-7-carboxylic Acid] | 0.267 nM | 0.031 nM | 0.00353 µM | 0.00856 µM
9 | Cc1c(Cl)c2c(Cl)c(C)c1-c1c(-c3ccc(F)cc3)sc3ncnc(c13)O[C@@H](C(=O)O)Cc1cc(ccc1OCc1ccnc(-c3ccc(CCN4CC5COCC5C4)cc3)n1)OC[C@@H](CN1CCN(C)CC1)O2 (stereo partly drawn) [Example 166, (7R,16R)-19,23-dichloro-1-(4-fluorophenyl)-20,22-dimethyl-16-[(4-methylpiperazin-1-yl)methyl]-10-[(2-{4-[2-(tetrahydro-1H-furo[3,4-c]pyrrol-5 (3H)-yl)ethyl]phenyl}pyrimidin-4-yl)methoxy]-7,8,15,16-tetrahydro-18,21-etheno-9,13-(metheno)-6,14,17-trioxa-2-thia-3,5-diazacyclononadeca[1,2,3-cd]indene-7-carboxylic Acid] | 0.058 nM | 0.002 nM | 0.000927 µM | 0.0032 µM
10 | Cc1c(Cl)c2c(Cl)c(C)c1-c1c(-c3ccc(F)cc3)sc3ncnc(c13)O[C@@H](C(=O)O)Cc1cc(ccc1OCc1ccnc(N3C[C@H]4C[C@@H](C3)[C@H]4O)n1)OC[C@@H](CN1CCN(C)CC1)O2 [Example 167, (7R,16R)-19,23-dichloro-1-(4-fluorophenyl)-10-({2-[(1R,5S,6r)-6-hydroxy-3-azabicyclo[3.1.1]heptan-3-yl]pyrimidin-4-yl}methoxy)-20,22-dimethyl-16-[(4-methylpiperazin-1-yl)methyl]-7,8,15,16-tetrahydro-18,21-etheno-13,9-(metheno)-6,14,17-trioxa-2-thia-3,5-diazacyclononadeca[1,2,3-cd]indene-7-carboxylic Acid] | 0.698 nM | 0.06 nM | 0.002 µM | 0.00892 µM
11 | COCCOCCOc1cc(COc2ccc3cc2C[C@H](C(=O)O)Oc2ncnc4sc(-c5ccc(F)cc5)c(c24)-c2c(C)c(Cl)c(c(Cl)c2C)O[C@H](CN2CCN(C)CC2)CO3)nc(-c2ccccc2OC)n1 [Example 169, (7R,16R)-19,23-dichloro-1-(4-fluorophenyl)-10-({6-[2-(2-methoxyethoxy)ethoxy]-2-(2-methoxyphenyl)pyrimidin-4-yl}methoxy)-20,22-dimethyl-16-[(4-methylpiperazin-1-yl)methyl]-7,8,15,16-tetrahydro-18,21-etheno-13,9-(metheno)-6,14,17-trioxa-2-thia-3,5-diazacyclononadeca[1,2,3-cd]indene-7-carboxylic Acid] | 0.631 nM | 0.03 nM | 0.000306 µM | 0.00115 µM
